Experiments:
[1] = molecular target: T1, ATP-dependent translocase ABCB1 (Homo sapiens, UniProt P08183); experiment: TP_TRANSPORTER: inhibition of Azidopine photoaffinity labelling (Azidopine: 0.2 uM, trans-flupenthioxol: 1 uM) in membranes from KB/V20C cells; type: functional, cell membranes, Membrane
[2] = molecular target: T1, ATP-dependent translocase ABCB1; experiment: TP_TRANSPORTER: increase in Doxorubicin intracellular accumulation (Doxorubicin: 0-20 uM, trans-flupenthixol: 5 uM) in MCF-7/ADR cells; type: functional, cell-based; details: nci/adr-res

T1 sequence (P08183 whole entry): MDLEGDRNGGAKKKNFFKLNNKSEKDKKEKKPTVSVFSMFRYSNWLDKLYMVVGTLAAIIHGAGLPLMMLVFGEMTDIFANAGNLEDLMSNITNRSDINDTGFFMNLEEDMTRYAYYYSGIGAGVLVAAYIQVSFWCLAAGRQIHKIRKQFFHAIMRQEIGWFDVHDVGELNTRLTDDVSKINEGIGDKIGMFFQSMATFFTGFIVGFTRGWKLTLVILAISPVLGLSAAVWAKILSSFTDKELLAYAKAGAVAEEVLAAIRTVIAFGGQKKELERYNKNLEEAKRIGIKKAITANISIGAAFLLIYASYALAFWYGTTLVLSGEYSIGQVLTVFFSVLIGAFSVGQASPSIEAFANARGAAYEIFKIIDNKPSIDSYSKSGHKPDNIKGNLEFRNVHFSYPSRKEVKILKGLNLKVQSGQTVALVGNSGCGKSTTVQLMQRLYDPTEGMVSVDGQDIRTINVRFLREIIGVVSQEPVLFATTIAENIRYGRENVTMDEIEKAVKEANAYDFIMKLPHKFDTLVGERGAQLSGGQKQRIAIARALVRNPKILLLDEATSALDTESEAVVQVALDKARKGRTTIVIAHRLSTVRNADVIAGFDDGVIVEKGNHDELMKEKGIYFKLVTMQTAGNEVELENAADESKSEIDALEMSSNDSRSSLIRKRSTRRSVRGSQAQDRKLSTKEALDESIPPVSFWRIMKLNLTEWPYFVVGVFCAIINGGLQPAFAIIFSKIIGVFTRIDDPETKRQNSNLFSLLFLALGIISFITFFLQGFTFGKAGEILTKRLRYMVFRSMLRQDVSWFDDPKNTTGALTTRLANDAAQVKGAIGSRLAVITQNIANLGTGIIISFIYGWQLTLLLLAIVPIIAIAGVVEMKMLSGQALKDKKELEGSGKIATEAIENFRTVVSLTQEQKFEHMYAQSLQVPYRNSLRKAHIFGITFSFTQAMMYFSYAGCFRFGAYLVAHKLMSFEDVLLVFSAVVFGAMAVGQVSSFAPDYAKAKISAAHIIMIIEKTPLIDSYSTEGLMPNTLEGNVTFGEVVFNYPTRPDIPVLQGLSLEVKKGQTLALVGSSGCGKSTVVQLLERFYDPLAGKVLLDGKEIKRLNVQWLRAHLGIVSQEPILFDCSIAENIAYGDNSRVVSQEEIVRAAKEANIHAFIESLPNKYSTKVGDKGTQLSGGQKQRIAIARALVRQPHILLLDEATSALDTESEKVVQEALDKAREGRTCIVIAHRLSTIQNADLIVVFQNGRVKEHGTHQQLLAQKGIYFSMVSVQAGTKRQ

- Activity [1]: inhibitor [+]
- Activity [2]: inhibitor [2 to 3-fold]
SMILES: OCCN1CCN(CC/C=C2\c3ccccc3Sc3ccc(C(F)(F)F)cc32)CC1 [E-FLUPENTIXOL]

— ChEMBL document CHEMBL2074039 (Biochem Pharmacol, 1993)
